Experimental findings from US20230117034A1, “PYRAZOLOTRIAZINES” (Bayer Aktiengesellschaft, priority 2019, published 2023) are described below.

The subject of test [1] is MDA-MB-231, human breast cancer cells. As to the kind of experiment: Proliferation assay MDA-MB-231 (crystal violet, 4 days). Format: cell-based. Conditions: Homo sapiens, MDA-MB-231, 96 h, MDA-MB-231 cells, median, read-out: Prolif-MDA MB-231, IC50-[mol/l] (median). The method in brief: (§1)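 Cells seeded at 4,000/well in medium with 10% FCS; after 24 h, compounds added at 0.01-10 µmol/L (0.1% DMSO) for 4 days. Glutaraldehyde-fixed, crystal violet-stained, absorbance at 595 nm normalized to zero-point plate (0%) and untreated cells (100%); IC50 by 4-parameter fit.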

Test [2] deals with BRCA1 mRNA expression in MDA-MB-231 cells. Nature of the test: qRT-PCR assay: BRCA1 mRNA expression in MDA-MB-231. Format: cell-based, human. The settings on record: Homo sapiens, MDA-MB-231, Inhibition of BRCA1 mRNA expression in MDA-MB-231 cells; median; read-out: RTqPCR-MDA-MB-231, IC50, BRCA1 (median). Put shortly:
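Cells were seeded at 200,000 cells/well, left 24 h, then exposed continuously to test substances for 24 h. Total RNA (600 ng) was reverse-transcribed to cDNA and amplified by qPCR, and transcript levels were normalised to GAPDH housekeeping expression.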
A general note: In qPCR the cycle at which signal appears reflects the starting amount.

For test [3], the system named is CAL-120, human breast adenocarcinoma cells. As to the kind of experiment: Proliferation assay CAL-120 (crystal violet, 4 days). Format: cell-based. The settings on record: Homo sapiens, CAL-120, 96 h, CAL-120 cells, median, read-out: Prolif-CAL-120, IC50-[mol/l] (median). The method in brief:
as §1

Test [4] addresses T1, CDK12 protein level in CAL-120 breast cancer cells (Homo sapiens, UniProt Q9NYV4).
T1 construct: endogenous in cells; host or cells: CAL-120 human breast cancer cells (DSMZ ACC 459)
As to the kind of experiment: CDK12 protein level: Protein Simple (CDK12, CAL-120). Format: cell-based. The settings on record: CAL-120 cells, 18 h with compound, CDK12/HSP90 peak area ratio vs vehicle, median, read-out: CDK12 protein level in CAL-120 breast ca cells, DC50-[mol/l] (median). The procedure: CAL-120 human breast cancer cells (DSMZ ACC 459) were seeded at 300,000 cells/well in 6-well plates containing 2 mL of growth medium (DMEM, 10% FCS, glutamine) and incubated for 24 h at 37° C. in an humidified incubator. Test compounds were added at various concentrations, control wells received solvent (DMSO), and the plates were incubated for another 18 h at 37° C. Cells were washed 2 times with PBS and lysed in 75 microL lysis buffer (MSD-Puffer (MSD, #R60TX-2), +1% 505S+PhosSTOP (Roche #04906837001)+complete mini (Roche #04693159001)) by scraping. The lysates were pushed 2 times through Qiashedders followed by centrifugation at 14,000 rpm for 30-50 sec. The supernatant was stored at −20° C. Proteins were separated by applying 0.4 microgramms of protein lysate to Protein Simple 66-440 kDa (Protein Simple #SM-S002) size assay columns on a PEGGY SUE or SALLY SUE equipment according to the supplier's manual. CDK12 and HSP90 (loading control) were detected using anti-human CDK12 antibody (Cell Signaling Technologies (CST) #11793) at 1:25 dilution and anti-human HSP90 antibody (CST #4877) at 1:5,000 dilution. CDK12 and HSP90 peak areas were determined using Protein Simple Compass software. Ratio of CDK12/HSP90 peak areas were calculated for each sample, and […] values (degrading concentration to achieve 50% reduction relative to vehicle treated control) were determined by means of a 4 parameter fit.

Test [5] deals with T2, CDK12 (nuclear staining in CAL-120 cells) (Homo sapiens, UniProt Q9NYV4).
T2 construct: endogenous in cells; host or cells: CAL-120 human breast cancer cells (DSMZ ACC 459)
As to the kind of experiment: CDK12 nuclear protein level: immunofluorescence/high content analysis (CAL-120). The settings on record: for DC50: CAL-120 cells, 24 h, immunofluorescence, 50% reduction of nuclear CDK12 staining intensity, median, read-out: CDK12 degradation IF, DC50- [mol/l] (median); for (IC50 CDK12 high ATP) to (Degradation DC50 CDK12) ratio: ratio of IC50 CDK12 high ATP kinase assay to DC50 CDK12 degradation (IF, CAL-120). Type of test: cell-based. The method in brief: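 CAL-120 cells were treated with compound for 24 h at 37 °C, fixed with PFA and immunostained for CDK12. Nuclear CDK12 intensity was quantified by automated image analysis and normalized to DMSO and control. DC50 is the concentration giving 50% reduction of nuclear staining.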

The test system of test [6] is BRCA1 mRNA expression in CAL-120 cells. Nature of the test: qRT-PCR assay: BRCA1 mRNA expression in CAL-120. Format: cell-based. Conditions: Homo sapiens; Inhibition of BRCA1 mRNA expression in CAL-120 cells; median; read-out: RTqPCR-CAL-120, IC50, BRCA1 (median). The procedure: 3. qRT-PCR Assay: BRCA, ATR, MCL1 in MDA-MB-231, CAL-120
Tissue cultured human MDA-MB-231 human breast cancer cells were plated in 500 microL per well at 200,000 cells/well in a 24 well microtiter plate. After 24 h, the cells were exposed continuously for 24 h to test substances (substances were added with Tecan HP 0300 Dispenser). RNA was prepared using Qiagen RNeasy MiniKit (#74106), RNA was quantified using a NanoDrop Equipment, and 600 nano gamms of RNA was coverted to cDNA using a SuperScript VILO kit (Thermofisher #11755050) followed by qPCR amplification. BRCA1 and ATR gene expression was measured by RT-qPCR and normalised to GAPDH housekeeping gene expression. qPCR primer sets have been purchased from Thermo Fisher Scientific/Applied Biosystems: BRCA1, #Hs 01556193; ATR, #Hs 00992123; GAPDH, #Hs 03929097.

T1 sequence (Q9NYV4 whole entry): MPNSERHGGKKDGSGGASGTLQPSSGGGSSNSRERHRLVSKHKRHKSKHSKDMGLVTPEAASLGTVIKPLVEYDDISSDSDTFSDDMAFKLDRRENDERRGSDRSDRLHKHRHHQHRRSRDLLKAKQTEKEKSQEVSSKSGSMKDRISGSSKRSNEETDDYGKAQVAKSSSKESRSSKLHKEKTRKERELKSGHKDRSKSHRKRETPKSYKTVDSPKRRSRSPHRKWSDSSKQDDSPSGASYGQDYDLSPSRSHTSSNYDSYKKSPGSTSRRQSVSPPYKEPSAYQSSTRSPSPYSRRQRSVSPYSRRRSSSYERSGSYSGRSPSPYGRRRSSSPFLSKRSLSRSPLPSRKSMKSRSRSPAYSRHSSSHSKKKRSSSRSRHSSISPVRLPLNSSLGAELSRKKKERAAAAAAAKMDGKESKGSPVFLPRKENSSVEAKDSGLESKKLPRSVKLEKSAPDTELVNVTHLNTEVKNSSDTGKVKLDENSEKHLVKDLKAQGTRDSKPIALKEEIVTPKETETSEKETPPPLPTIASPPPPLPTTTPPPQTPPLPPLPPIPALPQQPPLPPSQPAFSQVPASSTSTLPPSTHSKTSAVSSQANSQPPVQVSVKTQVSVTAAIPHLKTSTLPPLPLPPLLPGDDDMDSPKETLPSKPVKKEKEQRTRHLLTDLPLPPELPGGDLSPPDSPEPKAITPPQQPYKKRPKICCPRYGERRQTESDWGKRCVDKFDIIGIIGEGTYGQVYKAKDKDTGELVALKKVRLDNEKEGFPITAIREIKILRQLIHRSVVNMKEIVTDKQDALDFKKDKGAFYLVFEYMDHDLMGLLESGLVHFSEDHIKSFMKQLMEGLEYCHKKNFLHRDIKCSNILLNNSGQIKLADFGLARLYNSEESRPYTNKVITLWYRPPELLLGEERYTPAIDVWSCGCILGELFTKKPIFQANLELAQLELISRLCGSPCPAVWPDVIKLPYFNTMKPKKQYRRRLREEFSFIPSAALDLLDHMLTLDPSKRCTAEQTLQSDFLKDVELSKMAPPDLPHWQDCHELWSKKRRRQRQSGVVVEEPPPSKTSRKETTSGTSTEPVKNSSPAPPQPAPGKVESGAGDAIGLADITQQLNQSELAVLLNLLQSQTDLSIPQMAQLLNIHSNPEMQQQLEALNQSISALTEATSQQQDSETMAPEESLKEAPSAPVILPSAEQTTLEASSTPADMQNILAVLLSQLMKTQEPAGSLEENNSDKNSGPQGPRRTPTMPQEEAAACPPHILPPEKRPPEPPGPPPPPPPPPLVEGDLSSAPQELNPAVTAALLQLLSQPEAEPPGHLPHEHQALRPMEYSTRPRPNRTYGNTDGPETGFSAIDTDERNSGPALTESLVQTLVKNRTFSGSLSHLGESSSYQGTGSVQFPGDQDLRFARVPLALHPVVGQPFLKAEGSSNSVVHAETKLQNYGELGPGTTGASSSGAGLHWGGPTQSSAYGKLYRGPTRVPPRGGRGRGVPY
T1 sequence (O75909 whole entry partner): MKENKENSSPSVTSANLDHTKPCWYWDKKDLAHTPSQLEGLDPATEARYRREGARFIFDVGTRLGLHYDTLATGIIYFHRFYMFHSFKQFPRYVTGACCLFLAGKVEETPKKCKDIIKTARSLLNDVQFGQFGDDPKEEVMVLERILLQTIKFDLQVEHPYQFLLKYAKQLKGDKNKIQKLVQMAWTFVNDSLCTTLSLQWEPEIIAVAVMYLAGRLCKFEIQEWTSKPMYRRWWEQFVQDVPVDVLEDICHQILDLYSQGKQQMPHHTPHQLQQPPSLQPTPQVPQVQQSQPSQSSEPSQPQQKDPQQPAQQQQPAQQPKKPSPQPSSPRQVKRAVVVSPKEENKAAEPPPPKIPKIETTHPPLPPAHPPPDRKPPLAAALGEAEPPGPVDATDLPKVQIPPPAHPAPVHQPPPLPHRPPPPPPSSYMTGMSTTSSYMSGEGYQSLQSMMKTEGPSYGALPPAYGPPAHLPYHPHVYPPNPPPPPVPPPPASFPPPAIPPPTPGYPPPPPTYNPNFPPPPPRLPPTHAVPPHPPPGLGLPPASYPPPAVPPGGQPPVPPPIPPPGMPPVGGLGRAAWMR
T2 sequence (Q9NYV4 whole entry): as the sequence (Q9NYV4 whole entry) above
T2 sequence (O75909 whole entry partner): as the sequence (O75909 whole entry partner) above

Take `FC(F)(F)c1cnn2c(NCc3nc4ccccc4[nH]3)nc(N3CCOCC3)nc12` [Example 241, N-[(1H-benzimidazol-2-yl)methyl]-2-(morpholin-4-yl)-8-(trifluoromethyl) pyrazolo[1,5-a][1,3,5]triazin-4-amine]: the IC50 in test [1] turned out to be 28.9 nM; in test [2] it was 17.3 nM; in test [3], 29.6 nM. The results for the DC50 in test [4] and in test [5] were 7.29 nM and 4.34 nM, respectively. The “(IC50 CDK12 high ATP) to (Degradation DC50 CDK12) ratio” value in test [5] was determined as 186.
On to `CC(C)c1cnn2c(NCc3nc4ccccc4[nH]3)nc(Nc3ccncc3)nc12` [Example 14, N^4-[(1H-benzimidazol-2-yl)methyl]-8-(propan-2-yl)-N^2-(pyridin-4-yl)pyrazolo[1,5-a][1,3,5]triazine-2,4-diamine], for which the IC50 is 47 nM in test [1] and less than 30 nM in test [2]. Besides, the DC50 in test [4] turned out to be 9.38 nM; in test [5], 14.6 nM. For the same compound, the “(IC50 CDK12 high ATP) to (Degradation DC50 CDK12) ratio” value in test [5] is reported as greater than 1123.
As to `Clc1cnn2c(NCc3nc4ccccc4[nH]3)nc(N3CCOCC3)nc12` [Example 15, N-[(1H-benzimidazol-2-yl)methyl]-8-chloro-2-(morpholin-4-yl)pyrazolo[1,5-a][1,3,5]triazin-4-amine], the IC50 in test [1] was 44.6 nM; in test [6], 29.8 nM; in test [2], 10 nM; in test [3] it was 29.5 nM. The DC50 in test [4] stood at 2.98 nM; in test [5], 5.05 nM. Further, in test [5], the “(IC50 CDK12 high ATP) to (Degradation DC50 CDK12) ratio” value worked out at 1191.
Regarding `Fc1ccc2[nH]c(CNc3nc(N4CCNCC4)nc4c(C5CC5)cnn34)nc2c1` [Example 190, 8-cyclopropyl-N-[(5-fluoro-1H-benzimidazol-2-yl)methyl]-2-(piperazin-1-yl)pyrazolo[1,5-a][1,3,5]triazin-4-amine], the IC50 in test [1] is 4.01 nM; in test [2] it was 3.27 nM; in test [3], 6.68 nM. For the same compound, the DC50 in test [4] turned out to be 0.307 nM; in test [5], 0.553 nM. Further, in test [5], the “(IC50 CDK12 high ATP) to (Degradation DC50 CDK12) ratio” value worked out at 11161.
Turning to `C[C@H]1CN(c2nc(NCc3nc4ccccc4[nH]3)n3ncc(Br)c3n2)CCN1` [Example 169, N-[(1H-benzimidazol-2-yl)methyl]-8-bromo-2-[(3S)-3-methylpiperazin-1-yl]pyrazolo[1,5-a][1,3,5]triazin-4-amine], the IC50 in test [1] worked out at 20.7 nM; in test [2], 3.32 nM; in test [3], 3.56 nM. Also, the figures for the DC50 in test [4] and in test [5] were 1.04 nM and 1.09 nM, respectively. Also, the “(IC50 CDK12 high ATP) to (Degradation DC50 CDK12) ratio” value in test [5] was determined as 12610.
Consider `OC1CCCN(c2nc(NCc3nc4ccccc4[nH]3)n3ncc(Br)c3n2)C1` (racemic) [Example 16, (rac)-1-(4-{[(1H-benzimidazol-2-yl)methyl]amino}-8-bromopyrazolo[1,5-a][1,3,5]triazin-2-yl)piperidin-3-ol], for which the IC50 in test [1] turned out to be 81.1 nM; in test [2], 5.41 nM; in test [3] it was 38.2 nM. Moreover, the DC50 in test [4] was 58.1 nM; in test [5], 4.54 nM. For the same compound, the “(IC50 CDK12 high ATP) to (Degradation DC50 CDK12) ratio” value in test [5] worked out at 1528.
As for `COc1cccc2[nH]c(CNc3nc(N4CCNCC4)nc4c(C5CC5)cnn34)nc12` [Example 211, 8-cyclopropyl-N-[(4-methoxy-1H-benzimidazol-2-yl)methyl]-2-(piperazin-1-yl)pyrazolo[1,5-a][1,3,5]triazin-4-amine], the figures for the IC50 in test [1], in test [2] and in test [3] were 7.03 nM, 4.24 nM and 2.29 nM, respectively. The DC50 in test [5] came out at 2.32 nM. In addition, the “(IC50 CDK12 high ATP) to (Degradation DC50 CDK12) ratio” value in test [5] stood at 1184.
Turning to `Fc1ccc2[nH]c(CNc3nc(N4C[C@@H]5CCCN[C@@H]5C4)nc4c(C5CC5)cnn34)nc2c1F` [Example 171, 8-cyclopropyl-N-[(4,5-difluoro-1H-benzimidazol-2-yl)methyl]-2-[(4aS,7aS)-octahydro-6H-pyrrolo[3,4-b]pyridin-6-yl]pyrazolo[1,5-a][1,3,5]triazin-4-amine], the IC50 in test [1] worked out at 5.49 nM; in test [2], 1.03 nM; in test [3], 2.66 nM. The DC50 in test [5] is 2 nM. Besides, the “(IC50 CDK12 high ATP) to (Degradation DC50 CDK12) ratio” value in test [5] is 3278.
